# Paper PMC11375437, “Selective labelling of GBA2 in cells with fluorescent β-D-arabinofuranosyl cyclitol aziridines” (Chemical Science, 2024)
# Target: T1, GBA2 (Mus musculus, UniProt Q69ZF3)
# T1 construct: from tissue; host or cells: mouse brain homogenate
# T1 sequence (Q69ZF3 1-918): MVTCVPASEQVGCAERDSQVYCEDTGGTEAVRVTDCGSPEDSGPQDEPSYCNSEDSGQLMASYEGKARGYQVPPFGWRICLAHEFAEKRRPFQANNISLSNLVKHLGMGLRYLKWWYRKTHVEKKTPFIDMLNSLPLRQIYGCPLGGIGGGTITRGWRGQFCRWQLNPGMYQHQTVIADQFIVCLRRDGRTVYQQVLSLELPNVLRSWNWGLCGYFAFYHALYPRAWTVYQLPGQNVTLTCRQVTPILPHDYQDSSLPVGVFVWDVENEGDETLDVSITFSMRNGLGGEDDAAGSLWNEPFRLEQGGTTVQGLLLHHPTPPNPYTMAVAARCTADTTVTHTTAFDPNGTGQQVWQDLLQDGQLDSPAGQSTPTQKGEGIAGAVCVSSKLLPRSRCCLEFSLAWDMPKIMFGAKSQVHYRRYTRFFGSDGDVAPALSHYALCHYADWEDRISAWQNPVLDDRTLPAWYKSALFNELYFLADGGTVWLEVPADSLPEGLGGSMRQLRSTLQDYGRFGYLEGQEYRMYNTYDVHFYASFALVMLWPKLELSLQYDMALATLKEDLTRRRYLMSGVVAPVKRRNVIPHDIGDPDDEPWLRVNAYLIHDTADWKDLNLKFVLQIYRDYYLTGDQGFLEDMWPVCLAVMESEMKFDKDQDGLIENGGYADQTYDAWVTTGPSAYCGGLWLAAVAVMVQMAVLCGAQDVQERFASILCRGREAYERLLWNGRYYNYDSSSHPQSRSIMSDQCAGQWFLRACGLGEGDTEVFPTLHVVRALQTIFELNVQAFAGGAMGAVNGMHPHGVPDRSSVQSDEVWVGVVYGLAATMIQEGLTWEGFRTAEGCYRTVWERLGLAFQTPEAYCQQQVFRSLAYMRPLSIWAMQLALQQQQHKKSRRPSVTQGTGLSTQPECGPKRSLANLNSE
# Experiment: Labelling of GBA2 orthologue in mice brain homogenates
# Type: biochemical
# Details: 1 h at 37 °C; ABP 3 and 7 at 1 μM, ABP 4 and 5 at 2.5 μM
# Method: GBA2 orthologs are highly conserved among different species. […] The labelling capability of β-D-Araf aziridine ABPs toward GBA2 orthologs in these species was therefore evaluated. Homogenates of zebrafish larvae or mice brain homogenates were incubated with β-D-Araf ABPs 3–5 or broad-spectrum ABP 7 (Fig. 4).
# Fig. 4 Fluorescent gel images of selective labelling of GBA2 orthologues by β-D-Araf aziridine ABPs in different species. Cyclophellitol-aziridine ABP 7 (1 μM) and β-D-Araf ABPs (ABP 3 at 1 μM and ABP 4 and 5 at 2.5 μM) were incubated with homogenates of zebrafish (15 μg total protein) and mice brain (15 μg total protein) for 1 h at 37 °C. […]
# were transferred to nitrocellulose membrane for western blotting. Ponceau S staining was used to show total protein loading. […]
# 2.12 Reactivity of β-D-Araf aziridines towards GBA2 orthologue in other species β-D-Araf aziridine ABP 3-5 or ABP 7 was incubated with homogenates of zebrafish (Danio rerio) larvae or mice brain for 1 h at 37 °C. […] The zebrafish homogenates were passed through a desalting column (in the same way as described for the irreversibility evaluation above) to remove interference from biological pigments when scanning at λEX 473 nm and λEM ≥ 510 nm for BODIPY green fluorescence. […]
compound,measurement,value
CN1/C(=C/C=C/C=C/C2=[N+](CCCCCC(=O)NCc3cn(CCCCCCCCN4[C@@H]5[C@H](CO)[C@@H](O)[C@H](O)[C@@H](O)[C@@H]54)nn3)c3ccccc3C2(C)C)C(C)(C)c2ccccc21 (stereo partly shown) [ABP 7],Labelling selectivity in mice brain homogenates,show cross-reactivity towards GBA1
